Measured values taken from PubChem BioAssay (NCI).
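Each compound was tested at five concentrations against cells in 96-well plates for 48 hours. The concentration for 50% growth inhibition is given as GI50. Definition used: TGI = concentration required for complete inhibition of growth.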

How the values were obtained:
Assay in all cases: NCI tumour cell line growth inhibition, 48 h
A549 NSCLC = tested on: A549 NSCLC
HOP-92 NSCLC = tested on: HOP-92 NSCLC
KM12 colon = tested on: KM12 colon
NCI-H226 lung = tested on: NCI-H226 lung
OVCAR-4 ovarian = tested on: OVCAR-4 ovarian
SNB-75 CNS = tested on: SNB-75 CNS
SW-620 colon = tested on: SW-620 colon
UACC-257 melanoma = tested on: UACC-257 melanoma
DU-145 prostate = tested on: DU-145 prostate
PC-3 prostate = tested on: PC-3 prostate

Row | Compound | TGI (A549 NSCLC) [µM] | TGI (HOP-92 NSCLC) [µM] | TGI (KM12 colon) [µM] | TGI (NCI-H226 lung) [µM] | TGI (OVCAR-4 ovarian) [µM] | TGI (SNB-75 CNS) [µM] | TGI (SW-620 colon) [µM] | TGI (UACC-257 melanoma) [µM] | TGI (DU-145 prostate) [µM] | GI50 (A549 NSCLC) [µM] | GI50 (HOP-92 NSCLC) [µM] | GI50 (KM12 colon) [µM] | GI50 (OVCAR-4 ovarian) [µM] | GI50 (SNB-75 CNS) [µM] | GI50 (SW-620 colon) [µM] | GI50 (NCI-H226 lung) [µM] | GI50 (UACC-257 melanoma) [µM] | GI50 (DU-145 prostate) [µM] | GI50 (PC-3 prostate) [µM] | TGI (PC-3 prostate) [µM]
1 | O=c1c2cc(Br)cc(Br)c2nc(CCCl)n1CCO | > 100 | > 100 | > 100 | > 100 | > 100 | 93.5 | > 100 | > 100 |  |  |  |  |  |  |  |  |  |  |  | 
2 | O=C(Nc1c(Cl)cc([N+](=O)[O-])cc1Cl)C(=O)C(C1OC(=O)c2ccccc21)[N+](=O)[O-] (stereo not drawn) | > 100 | 99.1 | > 100 | > 100 | > 100 | > 100 | > 100 | > 100 |  |  |  |  |  |  |  |  |  |  |  | 
3 | COc1ccc(OC)c2c(C(=O)O)c(Cc3ccccc3)ccc12 | > 100 |  | > 100 | > 100 | > 100 | > 100 | > 100 | > 100 |  |  |  |  |  |  |  |  |  |  |  | 
4 | Clc1ccc2c(c1)-c1c3c(nn1-c1ccccc1)-c1ccccc1SC3O2 (stereo not drawn) | > 100 | > 100 | > 100 |  |  | > 100 | > 100 | > 100 |  |  |  |  |  |  |  |  |  |  |  | 
5 | COc1cc(NC(C)CCCN)c2nccc(C)c2c1 (stereo not drawn) | > 100 | > 100 | 32.5 |  | 59.9 | 37.1 |  |  | > 100 |  |  |  |  |  |  |  |  |  |  | 
6 | CCOC(=O)c1ccc(C)c(N=NN(C)C)c1 | > 100 | > 100 | > 100 | > 100 | > 100 | > 100 | > 100 | > 100 |  |  |  |  |  |  |  |  |  |  |  | 
7 | O=C1CCC(O)=C1N=Nc1ccccc1 | > 100 | > 100 | > 100 | > 100 | > 100 | > 100 | > 100 | > 100 |  |  |  |  |  |  |  |  |  |  |  | 
8 | O=C(c1ccccc1)C1OC12C(=O)Nc1ccccc12 (stereo not drawn) | > 100 | 55.2 |  | > 100 | > 100 | 42.2 | 62.6 | > 100 |  |  |  |  |  |  |  |  |  |  |  | 
9 | c1ccc(C2Nc3ccccc3C3OCCCC23)cc1 (stereo not drawn) | > 100 | 70.5 | > 100 | 68.3 | > 100 |  | > 100 | > 100 |  |  |  |  |  |  |  |  |  |  |  | 
10 | CSC(C1c2ccccc2N(c2ccc(C)cc2)c2[nH]c(=O)n(C)c(=O)c21)S(=O)(=O)c1ccc(C)cc1 (stereo not drawn) | > 100 | > 100 |  | > 100 | > 100 | > 100 | > 100 | > 100 |  |  |  |  |  |  |  |  |  |  |  | 
11 | CCN(CC)c1ccc(N=Nc2ccc(-c3nc4ccc[n+](C)c4s3)cc2)cc1 | 26.3 | 30.1 | 10.9 | 26.1 | 20 | 27.5 | 26.1 | 24.1 |  |  |  |  |  |  |  |  |  |  |  | 
12 | C/C(CC(=O)NCCc1ccccc1)=N\NC(=O)C[n+]1ccccc1 | > 100 | > 100 | > 100 | > 100 |  | > 100 | > 100 | > 100 |  |  |  |  |  |  |  |  |  |  |  | 
13 | CN(C)c1cc[c]([Sn]([c]2ccc(N(C)C)cc2)([c]2ccc(N(C)C)cc2)[c]2ccc(N(C)C)cc2)cc1 | 37.5 | 20.5 | 22.7 |  | 20.7 | 17.2 | 20.5 |  |  | 13.8 | 8.08 | 5.88 | 7.65 | 4.36 | 4.66 |  |  |  |  | 
14 | C1C[OH+]CC[OH+]CC[OH+]CC[OH+]CC[OH+]1.[Cl-].[V] | > 100 | > 100 | > 100 | > 100 | 41.6 | 41.2 | > 100 | > 100 |  | 61.1 | 34.3 | 26.9 | 6.03 | 16.2 | > 100 | 28.1 | 29.3 |  |  | 
15 | CCCCCCCCCCCCCCCCCCOc1ccccc1CC(=O)OCC[N+]1(C)CCCC1 |  | 3.37 | 3.49 | 6.09 | 12.1 | 3.07 |  | 9.12 | 5.29 |  | 1.22 | 1.88 | 2.94 | 1.26 |  | 2.2 | 2.82 | 2.21 |  | 
16 | C=CCc1ccc(Oc2cc(CC=C)c3c(c2O)O[C@@H](CO)[C@H]3c2ccc(O)c(-c3cc(CC=C)ccc3O)c2)cc1 | > 100 | > 100 | > 100 | > 100 | > 100 | > 100 | > 100 | > 100 |  |  |  |  |  |  |  |  |  |  |  | 
17 | COc1ccc(CCN2COc3c([C@@H](C)CCC=C(C)C)ccc(C)c3C2)cc1OC | 31.5 |  | 9.64 | 21.6 | 16 | 35.4 | 4.08 | 10.9 |  | 10.3 |  | 2.86 | 2.99 | 12.5 | 1.91 | 8.64 | 2.93 |  | 1.95 | 5.83
